Drawing on article PMC10564737, “Structure-based design of a phosphotyrosine-masked covalent ligand targeting the E3 ligase SOCS2” (Nature Communications, 2023), this text covers IC50 for one molecule.

Like-named read-outs stand apart in the source and are kept apart here.

This test deals with T1, SOCS2 (Homo sapiens, UniProt O14508).
T1 construct: endogenous SOCS2 from K562 lysates; endogenous in cells; host or cells: K562
T1 sequence (O14508 1-198): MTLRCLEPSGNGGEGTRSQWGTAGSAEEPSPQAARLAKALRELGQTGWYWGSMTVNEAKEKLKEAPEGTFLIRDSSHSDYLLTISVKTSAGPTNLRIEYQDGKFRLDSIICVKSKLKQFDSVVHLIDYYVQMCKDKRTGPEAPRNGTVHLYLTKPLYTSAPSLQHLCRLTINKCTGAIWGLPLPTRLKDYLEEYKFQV
Kind of test: SOCS2 pulldown with biotinylated GHR_pY595 peptide from K562 cell lysates preincubated with compound. The test is classed as biochemical. As to the method:
Pulldown of cellular SOCS2 was abrogated when K562 cells were pre-treated for 6 h with MN714 prior to cell lysis, further evidencing the inhibitor cell permeability and specific target engagement (Fig. 6c).
K562 cells were treated with either DMSO or 10 µM MN714 for 6 h before being lysed. For experiments with MN551, DMSO-treated lysate was used. DMSO-treated K562 lysate (1 mg/ml) was pre-cleared using control agarose beads (Pierce Control Agarose Resin, 26150) which were washed thrice using 50 mM Tris pH 7.4, 150 mM NaCl buffer. […] Unbound peptide was washed off through 3× cycles of buffer wash and spin. Beads were resuspended to a total volume of 100 µl per IP sample. 100 µl beads with immobilized peptides was added to the MN551 lysate tubes. Samples were incubated for 40 min at room temperature. Samples were spun and unbound supernatant was removed. Beads were washed 3× with 0.05% NP40, 50 mM Tris pH 7.4, 150 mM NaCl buffer before being resuspended in 35 µl 1× LDS. Samples were heated for 10 min at 95 °C after which the elute was transferred to a fresh tube. 20 µl of each sample was analyzed by Western Blot (4-12% Bis-Tris gel 180 V, 60 mins) before blotting for SOCS2 (ab109245, 1:1000 dilution) overnight at 4 °C. Uncropped blot images collected with ChemiDoc Touch imaging system (BioRad) operated by Image Lab (v2.4.0.03) and antibody validation provided in Source Data. […]

In general, IC50 refers to the concentration that gives 50% inhibition. On to `O=C(CCl)Nc1cccc(CNC(=O)[C@H](Cc2ccc(OP(=O)(O)O)cc2)NC(=O)Cc2ccc(F)cc2)c1` [MN551], for which the IC50 by setting is: (K562 cell lysates, mean ± SEM, technical replicates = 2, read-out: IC50 of reduction of SOCS2 pulled down with biotinylated GHR pY595) 5.9 ± 2.6 µM; (K562 lysates, version shown in the peer review file, read-out: apparent IC50 of blockade of SOCS2 pull-down) 9 µM.
